Experimental data from patent publication US8741886B2, “Baclofen and acamprosate based therapy of neurological disorders” (Pharnext, priority 2011, dated 2014).

Assays:
[1] = tested on: Human brain microvascular endothelial cerebral cells (HBMEC); assay: Toxicity of human Aβ1-42 peptide on HBMEC: total length of capillary network; assay type: cell-based; settings: Aβ1-42 2.5 μM; single drugs at the concentrations used in the combination
Procedure: Human brain microvascular endothelial cell cultures were used to study the protection afforded by candidate compound(s) on Aβ1-42 toxicity.
Human brain microvascular endothelial cerebral cells (HBMEC, ScienCell Ref: 1000, frozen at passage 10) were rapidly thawed in a waterbath at +37° C. The supernatant was immediately put in 9 ml Dulbecco's modified Eagle's medium (DMEM; Pan Biotech ref: P04-03600) containing 10% of foetal calf serum (FCS; GIBCO ref 10270-106). […]
• Negative Control: medium alone+0.1% DMSO • Intoxication: amyloid-β1-42 (2.5 μM) for 18 h • Positive control: VEGF-165 (10 nM) (1 reference compound/culture) 1 hr before the Aβ1-42 (2.5 μM) addition for a 18 h incubation time. • Test compounds: Test compound(s) 1 hr before the Aβ1-42 (2.5 μM) addition for a 18 h incubation time. Capillary Network Quantification
Per well, 2 pictures with 4× lens were taken using InCell Analyzer™ 1000 (GE Healthcare) in light transmission. […] The total length of capillary network was assessed.
Data were expressed in percentage of control conditions (no intoxication, no amyloid=100%) in order to express the amyloid injury. All values were expressed as mean+/−SEM (s.e.mean) of the 3 cultures (n=6 wells per condition). […]

[2] = tested on: mice injected i.c.v. with Aβ25-35 peptide; assay: Spontaneous alternation, Y-maze test, after i.c.v. Aβ25-35; assay type: in vivo; settings: drugs alone: Donepezil 0.25 mg/kg/day, Acamprosate 32 μg/kg/day, Baclofen 480 μg/kg/day
From the text: The Y-maze is made of grey polyvinylchloride. Each arm is 40 cm long, 13 cm high, 3 cm wide at the bottom, 10 cm wide at the top, and converging at an equal angle. […] An alternation is defined as entries into all three arms on consecutive occasions.

[3] = tested on: mice injected i.c.v. with Aβ25-35 peptide; assay: Passive avoidance test after i.c.v. Aβ25-35; assay type: in vivo; settings: Acamprosate 0.2 mg/kg; Baclofen 3 mg/kg
Procedure: Male Swiss mice are used throughout the study. Animals are housed in plastic cages, with free access to laboratory chow and water, except during behavioural experiments, and kept in a regulated environment, under a 12 h light/dark cycle (light on at 8:00 a.m.). Experiments are carried out in a soundproof and air-regulated experimental room, to which mice have been habituated at least 30 min before each experiment.
Drug(s) is/are daily administered by gavage (per os). The β25-35 peptide and scrambled β 25-35 peptide (control) have been dissolved in sterile bidistilled water, and stored at −20° C. until use. The β-amyloid peptides are then administered intracerebroventricularly (i.c.v.). […]
On day 7 and 8, the contextual long-term memory of the animals is assessed using the […] passive avoidance procedure.
The apparatus is a two-compartment (15×20×15 cm high) box with one illuminated with white polyvinylchloride walls and the other darkened with black polyvinylchloride walls and a grid floor. […] The step-through latency, that is, the latency spent to enter the darkened compartment, and the number of vocalizations is recorded. […] After 5 s the doors is raised, the step-through latency and the escape latency, i.e. the time spent to return into the white compartment, are recorded up to 300 s.

Structure (SMILES) | effect on Aβ1-42 intoxication, total length of capillary network (in words) [1] | effect on percentage of alternation (Y-maze), low doses (in words) [2] | effect on step-through latency, drugs alone compared with the combination (in words) [3]
CC(=O)NCCCS(=O)(=O)O [Acamprosate] | no significant effect | no significant effect | lower effect
NCC(CC(=O)O)c1ccc(Cl)cc1 (stereo not drawn) [Baclofen] | no significant effect | no significant effect | lower effect
